Results on 3 compounds are retold here after US12390447B2, “Sirtuin 6 protein deacylase (SIRT6) activators” (Wisconsin Alumni Research Foundation, priority 2019, dated 2025).

The nature of data set [1]: Micelle formation with fluorescent membrane probe diphenylhexatriene (DPH). In kind it is physicochemical.
Another data set deals with SIRT6 (Homo sapiens, UniProt Q8N6T7). Put plainly: Steady-state kinetic analysis of SIRT6 deacetylation (Michaelis-Menten). The note with it: in the presence of 100 μM CL4, 50 μM TTNPB, 50 μM LPA or 50 μM LGly. It is filed as biochemical. On the procedure: (§1) FIGS. 1A-F illustrate the identification of novel SIRT6 activators. (1A) Compound libraries BML-2803, BML-2800, and an additional set of 178 molecules were screened at 100 μM for their ability to stimulate SIRT6 (1 μM) deacetylation of H3K9ac peptide (20 μM) in the presence of 0.5 mM NAD^+. SIRT6 activity was measured by HPLC quantification of H3K9ac and deacetylated product (inset) and fold activations relative to DMSO control were determined and compiled. (1B) Fold-activation of SIRT6 (1 μM) determined in the presence of either 0-400 μM CL4, 0-150 μM TTNPB, 0-100 μM Lysophosphatidic acid (LPA), or 0-200 μM linoleoylglycine (LGly). Maximum fold-activation and EC50 determined by sigmoidal curve fit. […] Constants Km, H3K9ac and kcat were determined by fitting data to Michaelis-Menten equation. (1D) Fold-activations of SIRT1 (0.1 μM), SIRT2 (0.2 μM), SIRT3 (1 μM), SIRT5 (2 μM), and SIRT6 (1 μM) determined in the presence of CL4 (100 μM), TTNPB (50 μM), and LPA (50 μM) relative to DMSO control against 20 μM H3K9ac peptide and 0.5 mM NAD^+. […]
FIGS. 2A-D show results characterizing SIRT6 activator CL5D. […] (2B) SIRT6 demyristoylase activity determined in the presence of 0-25 μM H3K9myr peptide, 0.5 mM NAD^+ and 5% DMSO (•), 12.5 μM CL5D (▪), 25 μM CL5D (♦), and 50 μM CL5D (▴). […]

Another data set addresses T1, SIRT2 (Homo sapiens, UniProt Q8IXJ6).
T1 sequence (Q8IXJ6 1-389): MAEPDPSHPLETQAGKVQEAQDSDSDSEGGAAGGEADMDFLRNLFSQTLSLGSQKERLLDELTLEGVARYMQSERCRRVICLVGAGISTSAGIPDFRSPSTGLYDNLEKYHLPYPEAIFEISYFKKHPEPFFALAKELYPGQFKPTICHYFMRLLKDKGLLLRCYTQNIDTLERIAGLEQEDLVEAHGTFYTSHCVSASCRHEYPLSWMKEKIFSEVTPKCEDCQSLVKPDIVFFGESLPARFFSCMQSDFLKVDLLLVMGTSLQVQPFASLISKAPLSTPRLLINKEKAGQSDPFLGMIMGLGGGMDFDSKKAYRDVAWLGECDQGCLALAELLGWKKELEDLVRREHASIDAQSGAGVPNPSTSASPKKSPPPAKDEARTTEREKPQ
Put plainly: SIRT2 deacetylase activity against H3K9ac peptide. In kind it is biochemical. On the procedure:
as §1
All sirtuin deacylation assays were carried out at 37° C. in 20 mM potassium phosphate pH 7.5 with 0.5 mM NAD^+, 10% DMSO, and 20 μM H3K9ac or H3K9myr peptides, unless otherwise noted in legend, and quenched by the addition of 2% TFA final. […] The product and substrate peaks were quantified and ratio of these allowed for quantification of product formation. […]

Another data set addresses SIRT6 K81A (Homo sapiens, UniProt Q8N6T7, K81A). Put plainly: Steady-state deacetylation rate of SIRT6 K81A with or without CL5D. It is filed as biochemical. As to conditions: SIRT6 K81A 1 μM, H3K9ac 40 μM, CL5D 50 μM, 25 minutes. On the procedure: (§2) All sirtuin deacylation assays were carried out at 37° C. in 20 mM potassium phosphate pH 7.5 with 0.5 mM NAD^+, 10% DMSO, and 20 μM H3K9ac or H3K9myr peptides, unless otherwise noted in legend, and quenched by the addition of 2% TFA final. Steady-state reactions were constrained to less than 20% substrate turnover to prevent product inhibition. A variety of times were required to monitor SIRT6 deacetylation (2-60 minutes) under this restraint given the ability to strongly activate catalysis. In these cases, specific activities were determined and either reported as is or as fold-activation of specific activity. Deacylation reactions were analyzed by reversed phase high-performance liquid chromatography on a Kinetex C18 column (100 Å, 100×4.6 mm, 2.6 μm, Phenomenex) by monitoring the formation of the deacylated product at 214 nm. Deacetylation reactions were analyzed using a gradient of 33-100% B (30% acetonitrile with 0.05% TFA) in 8 min at 1.6 mL min^−1. Demyristoylation reactions were analyzed using a gradient of 3 to 100% B (acetonitrile with 0.05% TFA) in 10 min at 1.6 mL min^−1. The product and substrate peaks were quantified and ratio of these allowed for quantification of product formation. Three independent experiments were performed for each condition with averages being plotted and error bars representing the standard deviation of these replicates. […]

The target in the next data set is SIRT6 R65A (Homo sapiens, UniProt Q8N6T7, R65A). Put plainly: Steady-state deacetylation rate of SIRT6 R65A with or without CL5D. The note with it: CL5D 50 μM. It is filed as biochemical. On the procedure:
as §2

Sequence of SIRT6 (Q8N6T7 whole entry): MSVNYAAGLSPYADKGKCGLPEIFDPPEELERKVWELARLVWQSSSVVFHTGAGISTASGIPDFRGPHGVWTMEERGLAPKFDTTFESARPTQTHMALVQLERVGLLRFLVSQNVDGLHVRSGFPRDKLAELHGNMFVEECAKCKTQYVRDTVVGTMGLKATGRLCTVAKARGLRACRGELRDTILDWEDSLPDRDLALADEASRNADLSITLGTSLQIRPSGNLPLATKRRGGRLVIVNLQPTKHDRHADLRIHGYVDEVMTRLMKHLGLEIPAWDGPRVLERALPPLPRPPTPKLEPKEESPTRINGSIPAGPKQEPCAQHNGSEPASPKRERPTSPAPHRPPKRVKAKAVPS
Sequence of SIRT6 R65A (Q8N6T7 whole entry R65A): as the sequence (Q8N6T7 whole entry) above, with R65A counted along it
Sequence of SIRT6 K81A (Q8N6T7 whole entry K81A): as the sequence (Q8N6T7 whole entry) above, with K81A counted along it

`O=C(O)c1ccc2c(c1)C(=O)N(c1ccc(NC(=O)c3ccc(Cl)cc3Cl)c(Cl)c1)C2=O` [CL-4, 2-(3-chloro-4-(2,4-dichlorobenzamido)phenyl)-1,3-dioxoisoindoline-5-carboxylic acid]: the “micelle formation (in words)” value in data set [1] is on record as “not observed to form micelles”. Also, the kcat on SIRT6 is reported as 1.5 ± 0.3 s^−1 × 10^−3. Further, the “specificity for SIRT6 over SIRT2” value at SIRT2 (CL4 100 μM, TTNPB 50 μM, LPA 50 μM) is “greater than 19 fold”.

With `O=C(O)c1ccc2c(c1)C(=O)N(c1ccc(N(C(=O)c3c(Cl)cc(Cl)cc3Cl)C(=O)c3c(Cl)cc(Cl)cc3Cl)c(Cl)c1)C2=O` [CL-5D, 2-(3-chloro-4-(2,4,6-trichloro-N-(2,4,6-trichlorobenzoyl)benzamido)phenyl)-1,3-dioxoisoindoline-5-carboxylic acid], the RateCL5D at SIRT6 K81A was 0.125 ± 0.003 µM/min; at SIRT6 R65A (SIRT6 R65A 1 μM, H3K9ac 40 μM, 25 minutes), 0.014 ± 0.004 µM/min. Besides, at SIRT6 R65A, the “activation of SIRT6 R65A (in words)” value is “cannot be activated”. On SIRT2 (400 μM compound), the “SIRT2 deacetylase activity at high activator concentration” value is reported as “inhibited”.

In the case of `CCCCC/C=C\C/C=C\CCCCCCCC(=O)NCC(=O)O` [N-Linoleoylglycine, linoleoyl-glycine, reference compound], the “concentration at which micelle formation was observed” value in data set [1] is greater than 300 µM. At SIRT6, the kcat was 2.8 ± 0.1 s^−1 × 10^−3.
